Data taken from ChEMBL document CHEMBL1133048, “A QSAR study investigating the effect of L-alanine ester variation on the anti-HIV activity of some phosphoramidate derivatives of d4T” (2000).

What was measured:
[1] = test system: CCRF-CEM; assay: Effective concentration required to inhibit 50% of HIV-1 induced giant cell formation in CEM cell cultures; type: functional, Homo sapiens
[2] = test system: CCRF-CEM; assay: Cytotoxic concentration required to inhibit CEM cell proliferation by 50%; type: functional; conditions: Homo sapiens
[3] = test system: CCRF-CEM; assay: Effective concentration required to inhibit 50% of HIV-2 induced giant cell formation in CEM cell cultures; type: functional, Homo sapiens

Compound	Log 1/EC50 [1]	Log 1/EC50 [3]	CC50 [2] [µM]
Cc1cn(C2C=CC(COP(=O)(NC(C)C(=O)OCC3CCCCC3)Oc3ccccc3)O2)c(=O)[nH]c1=O (stereo not drawn)	1.4	–	12.1
Cc1cn(C2C=CC(COP(=O)(NC(C)C(=O)Oc3ccccc3)Oc3ccccc3)O2)c(=O)[nH]c1=O (stereo not drawn)	1.6	1.1	–
CCCCOC(=O)C(C)NP(=O)(OCC1C=CC(n2cc(C)c(=O)[nH]c2=O)O1)Oc1ccccc1 (stereo not drawn)	–	–	60
Cc1cn(C2C=CC(COP(=O)(NC(C)C(=O)OCCc3ccccc3)Oc3ccccc3)O2)c(=O)[nH]c1=O (stereo not drawn)	0.071	0.155	250
Cc1cn(C2C=CC(COP(=O)(NC(C)C(=O)OCCCc3ccccc3)Oc3ccccc3)O2)c(=O)[nH]c1=O (stereo not drawn)	0	-0.217	250
Cc1cn(C2C=CC(COP(=O)(NC(C)C(=O)OCc3cccc4ccccc34)Oc3ccccc3)O2)c(=O)[nH]c1=O (stereo not drawn)	1.52	1.22	21.6
Cc1cn(C2C=CC(COP(=O)(NC(C)C(=O)OC3CCCCC3)Oc3ccccc3)O2)c(=O)[nH]c1=O (stereo not drawn)	1.19	1.13	51.4
CCCCCCOC(=O)C(C)NP(=O)(OCC1C=CC(n2cc(C)c(=O)[nH]c2=O)O1)Oc1ccccc1 (stereo not drawn)	1.22	1.26	48

The next lines start with results.

Log 1/EC50 [1]	Log 1/EC50 [3]	Compound	CC50 [2] [µM]
1.13	1.13	COC(=O)C(C)NP(=O)(OC[C@@H]1C=C[C@H](n2cc(C)c(=O)[nH]c2=O)O1)Oc1ccccc1 (stereo partly drawn)	100
1.33	1.1	CCCOC(=O)C(C)NP(=O)(OCC1C=CC(n2cc(C)c(=O)[nH]c2=O)O1)Oc1ccccc1 (stereo not drawn)	40
1	1.16	CCOC(=O)C(C)NP(=O)(OCC1C=CC(n2cc(C)c(=O)[nH]c2=O)O1)Oc1ccccc1 (stereo not drawn)	55
1.35	1.1	CCCCCOC(=O)C(C)NP(=O)(OCC1C=CC(n2cc(C)c(=O)[nH]c2=O)O1)Oc1ccccc1 (stereo not drawn)	40.5
1.3	1.35	Cc1cn(C2C=CC(COP(=O)(NC(C)C(=O)OCC(C)(C)C)Oc3ccccc3)O2)c(=O)[nH]c1=O (stereo not drawn)	43.5
0.071	-0.041	Cc1cn(C2C=CC(COP(=O)(NC(C)C(=O)OC(C)(C)C)Oc3ccccc3)O2)c(=O)[nH]c1=O (stereo not drawn)	250
